Among the data in patent US10577363B2, “Substituted piperidine compounds” (EPIZYME, INC., priority 2014, dated 2020) are IC50 values, retold here.

Test [1] deals with T1, SMYD3 (Homo sapiens (Human), UniProt Q9H7B4). The test is described as follows: SMYD3 biochemical assay (SPA, 3H-SAM methylation of MEKK2 protein substrate). Particulars: read-out: SMYD3 Biochem IC50*. The gist of the method: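 Methylation of N-terminally GST-tagged MEKK2 by untagged full-length human SMYD3, using 3H-SAM, in pH 8.0 Tris buffer with TCEP, BSG and Tween 20; enzyme and compound sat 30 min at room temperature before substrate addition. Stopped with 100 uM (final) cold SAM; incorporation read by scintillation proximity as dpm/cpm.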

In test [2] the target is T1, SMYD3. As to the kind of experiment: SMYD3 cell assay (Trimethyl-MEKK2 In-Cell Western in 293T/17 cells). Format: cell-based. To be noted: read-out: SMYD3 Cell IC50*. Summed up:
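In-Cell Western readout: methanol-fixed cells stained for trimethyl-MEKK2 and flag tag, ratio per well normalized to DMSO and background controls.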

T1 sequence (Q9H7B4 whole entry): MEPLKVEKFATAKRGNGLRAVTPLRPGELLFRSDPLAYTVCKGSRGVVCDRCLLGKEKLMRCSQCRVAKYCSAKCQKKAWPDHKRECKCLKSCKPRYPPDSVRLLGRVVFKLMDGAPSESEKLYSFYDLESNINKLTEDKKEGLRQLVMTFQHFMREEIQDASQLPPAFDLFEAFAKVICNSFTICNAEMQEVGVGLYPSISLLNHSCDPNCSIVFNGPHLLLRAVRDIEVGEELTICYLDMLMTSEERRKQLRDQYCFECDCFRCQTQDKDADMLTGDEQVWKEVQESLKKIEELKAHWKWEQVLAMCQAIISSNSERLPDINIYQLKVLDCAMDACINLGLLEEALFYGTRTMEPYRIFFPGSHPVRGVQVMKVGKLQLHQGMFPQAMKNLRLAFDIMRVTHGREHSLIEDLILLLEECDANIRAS

A word on the IC50: it is the concentration needed to halve the response being measured. With `C[C@H]1C[C@@H](NC(=O)c2cc(C3CC3)on2)CCN1S(=O)(=O)N1CCC2(CCN2)CC1` [compound 813, N-((2S,4S)-1-((1,7-diazaspiro[3.5]nonan-7-yl)sulfonyl)-2-methylpiperidin-4-yl)-5-cyclopropylisoxazole-3-carboxamide], the IC50 in test [1] was found to be 2.73 nM; in test [2], 35.7 nM.

Take `C[C@H]1C[C@@H](NC(=O)c2cc(C3CC3)on2)CCN1S(=O)(=O)CC[C@H]1CCN(C)C1` [compound 814, 5-cyclopropyl-N-((2S,4S)-2-methyl-1-((2-((R)-1-methylpyrrolidin-3-yl)ethyl)sulfonyl)piperidin-4-yl)isoxazole-3-carboxamide]: the IC50 in test [1] stood at 2.77 nM; in test [2], 44.2 nM.

As for `CCc1cc(C(=O)N[C@H]2C[C@H]3CC[C@@H](C2)N3S(=O)(=O)[C@H]2CC[C@@H](N)CC2)no1` [compound 815, N-((1R,3R,5S)-8-(((1s,4S)-4-aminocyclohexyl)sulfonyl)-8-azabicyclo[3.2.1]octan-3-yl)-5-ethylisoxazole-3-carboxamide], the IC50 in test [1] stood at 2.78 nM; in test [2], 52.6 nM.

On to `C[C@@H](C1CCN(C)CC1)S(=O)(=O)N1[C@@H]2CC[C@H]1C[C@@H](NC(=O)c1cc(C3CC3)on1)C2` [compound 816, 5-cyclopropyl-N-((1R,3S,5S)-8-(((S)-1-(1-methylpiperidin-4-yl)ethyl)sulfonyl)-8-azabicyclo[3.2.1]octan-3-yl)isoxazole-3-carboxamide], for which the IC50 in test [1] was determined as 2.91 nM; in test [2], 52.3 nM.

Regarding `O=C(N[C@H]1C[C@H]2CC[C@@H](C1)N2S(=O)(=O)N1CC2CCC(C1)N2)c1cc(C2CC2)on1` [compound 817, N-((1R,3r,5S)-8-((3,8-diazabicyclo[3.2.1]octan-3-yl)sulfonyl)-8-azabicyclo[3.2.1]octan-3-yl)-5-cyclopropylisoxazole-3-carboxamide], the IC50 in test [1] stood at 3.11 nM; in test [2], 34.8 nM.

For `CC(C)CN1CCC2(CC1)CN(S(=O)(=O)N1[C@@H]3CC[C@H]1C[C@@H](NC(=O)c1cc(C4CC4)on1)C3)C2` [compound 818, 5-cyclopropyl-N-((1R,3r,5S)-8-((7-isobutyl-2,7-diazaspiro[3.5]nonan-2-yl)sulfonyl)-8-azabicyclo[3.2.1]octan-3-yl)isoxazole-3-carboxamide], the IC50 in test [1] came out at 3.13 nM; in test [2], 55.4 nM.

As to `C[C@H]1C[C@@H](NC(=O)c2cc(C3CC3)on2)CCN1S(=O)(=O)C[C@@H]1CCC[C@@H](N)C1` [compound 819, N-((2S,4S)-1-((((1R,3R)-3-aminocyclohexyl)methyl)sulfonyl)-2-methylpiperidin-4-yl)-5-cyclopropylisoxazole-3-carboxamide], the IC50 worked out at 3.2 nM in test [1] and 124 nM in test [2].

Regarding `CN(CCO)C1CCN(S(=O)(=O)N2[C@@H]3CC[C@H]2C[C@@H](NC(=O)c2cc(C4CC4)on2)C3)CC1` [compound 820, 5-cyclopropyl-N-((1R,3r,5S)-8-((4-((2-hydroxyethyl)(methyl)amino)piperidin-1-yl)sulfonyl)-8-azabicyclo[3.2.1]octan-3-yl)isoxazole-3-carboxamide], the IC50 in test [1] was determined as 3.27 nM; in test [2], 57.4 nM.

For the compound `CC(C)CCNC1CCN(S(=O)(=O)N2[C@@H]3CC[C@H]2C[C@@H](NC(=O)c2cc(C4CC4)on2)C3)CC1` [compound 821, 5-cyclopropyl-N-((1R,3r,5S)-8-((4-(isopentylamino)piperidin-1-yl)sulfonyl)-8-azabicyclo[3.2.1]octan-3-yl)isoxazole-3-carboxamide], the IC50 in test [1] is 3.28 nM; in test [2] it was 58.5 nM.

With `CCN1C2CCC1CN(S(=O)(=O)N1[C@@H]3CC[C@H]1C[C@@H](NC(=O)c1cc(C4CC4)on1)C3)C2` [compound 822, 5-cyclopropyl-N-((1R,3r,5S)-8-((8-ethyl-3,8-diazabicyclo[3.2.1]octan-3-yl)sulfonyl)-8-azabicyclo[3.2.1]octan-3-yl)isoxazole-3-carboxamide], the IC50 was determined as 3.44 nM in test [1] and 43.7 nM in test [2].

Take `C[C@H]1C[C@@H](NC(=O)c2cc(C3CC3)on2)CCN1S(=O)(=O)CC1CCC(N(C)C)C1` (stereo partly drawn) [compound 823, 5-cyclopropyl-N-((2S,4S)-1-(((3-(dimethylamino)cyclopentyl)methyl)sulfonyl)-2-memylpiperidin-4-yl)isoxazole-3-carboxamide]: the figures for the IC50 in test [1] and in test [2] were 3.5 nM and 67.2 nM, respectively.

For the compound `O=C(N[C@H]1C[C@H]2CC[C@@H](C1)N2S(=O)(=O)N1CC2(CCN(Cc3ccccc3)CC2)C1)c1cc(C2CC2)on1` [compound 824, N-((1R,3r,5S)-8-((7-benzyl-2,7-diazaspiro[3.5]nonan-2-yl)sulfonyl)-8-azabicyclo[3.2.1]octan-3-yl)-5-cyclopropylisoxazole-3-carboxamide], the IC50 is 3.87 nM in test [1] and 80.4 nM in test [2].

As for `COCCN[C@H]1CC[C@H](S(=O)(=O)N2[C@@H]3CC[C@H]2C[C@@H](NC(=O)c2cc(C4CC4)on2)C3)CC1` [compound 825, 5-cyclopropyl-N-((1R,3R,5S)-8-(((1r,4R)-4-((2-methoxyemyl)amino)cyclohexyl)sulfonyl)-8-azabicyclo[3.2.1]octan-3-yl)isoxazole-3-carboxamide], the figures for the IC50 in test [1] and in test [2] were 3.91 nM and 55.3 nM, respectively.

As for `COCCN[C@H]1CC[C@@H](S(=O)(=O)N2[C@@H]3CC[C@H]2C[C@@H](NC(=O)c2cc(C4CC4)on2)C3)CC1` [compound 826, 5-cyclopropyl-N-((1R,3R,5S)-8-(((1s,4S)-4-((2-methoxyethyl)amino)cyclohexyl)sulfonyl)-8-azabicyclo[3.2.1]octan-3-yl)isoxazole-3-carboxamide], the IC50 stood at 3.92 nM in test [1] and 58.4 nM in test [2].

In the case of `C[C@H]1C[C@@H](NC(=O)c2cc(C3CC3)on2)CCN1S(=O)(=O)CC1CCCC(N)C1` (stereo partly drawn) [compound 827, N-((2S,4S)-1-(((3-aminocyclohexyl)methyl)sulfonyl)-2-methylpiperidin-4-yl)-5-cyclopropylisoxazole-3-carboxamide], the IC50 in test [1] turned out to be 4 nM; in test [2], 72.7 nM.

With `C[C@H]1C[C@@H](NC(=O)c2cc(C3CC3)on2)CCN1S(=O)(=O)N1C2CNCC1C2` [compound 828, N-((2S,4S)-1-((3,6-diazabicyclo[3.1.1]heptan-6-yl)sulfonyl)-2-methylpiperidin-4-yl)-5-cyclopropylisoxazole-3-carboxamide], the IC50 is 4.18 nM in test [1] and 150 nM in test [2].

As for `CCNC1CCN(S(=O)(=O)N2CC[C@H](NC(=O)c3cc(C4CC4)on3)C[C@@H]2C)CC1` [compound 829, 5-cyclopropyl-N-((2S,4S)-1-((4-(ethylamino)piperidin-1-yl)sulfonyl)-2-methylpiperidin-4-yl)isoxazole-3-carboxamide], the concentration for half-maximal inhibition (IC50) was determined as 4.3 nM in test [1] and 70.2 nM in test [2].

For `NCC1CCN(S(=O)(=O)N2[C@@H]3CC[C@H]2C[C@@H](NC(=O)c2cc(C4CC4)on2)C3)CC1` [compound 830, N-((1R,3r,5S)-8-((4-(aminomethyl)piperidin-1-yl)sulfonyl)-8-azabicyclo[3.2.1]octan-3-yl)-5-cyclopropylisoxazole-3-carboxamide], the IC50 in test [1] was found to be 4.34 nM; in test [2], 1550 nM.

Turning to `CC1CN(S(=O)(=O)N2[C@@H]3CC[C@H]2C[C@@H](NC(=O)c2cc(C4CC4)on2)C3)CCC1N` (stereo partly drawn) [compound 831, N-((1R,3r,5S)-8-((4-amino-3-methylpiperidin-1-yl)sulfonyl)-8-azabicyclo[3.2.1]octan-3-yl)-5-cyclopropylisoxazole-3-carboxamide], the IC50 was determined as 4.36 nM in test [1] and 85.1 nM in test [2].

Take `O=C(N[C@H]1C[C@H]2CC[C@@H](C1)N2S(=O)(=O)N1C2CNCC1C2)c1cc(C2CC2)on1` [compound 832, N-((1R,3r,5S)-8-((3,6-diazabicyclo[3.1.1]heptan-6-yl)sulfonyl)-8-azabicyclo[3.2.1]octan-3-yl)-5-cyclopropylisoxazole-3-carboxamide]: the half-maximal inhibitory concentration (IC50) is 4.38 nM in test [1] and 134 nM in test [2].

With `CCc1cc(C(=O)N[C@H]2C[C@H]3CC[C@@H](C2)N3S(=O)(=O)[C@H]2CC[C@@H](NCCO)CC2)no1` [compound 833, 5-ethyl-N-((1R,3R,5S)-8-(((1s,4S)-4-((2-hydroxyethyl)amino)cyclohexyl)sulfonyl)-8-azabicyclo[3.2.1]octan-3-yl)isoxazole-3-carboxamide], the IC50 in test [1] worked out at 4.47 nM; in test [2] it was 72.2 nM.

For the compound `CN(CCCO)C1CCN(S(=O)(=O)N2[C@@H]3CC[C@H]2C[C@@H](NC(=O)c2cc(C4CC4)on2)C3)CC1` [compound 834, 5-cyclopropyl-N-((1R,3r,5S)-8-((4-((3-hydroxypropyl)(methyl)amino)piperidin-1-yl)sulfonyl)-8-azabicyclo[3.2.1]octan-3-yl)isoxazole-3-carboxamide], the results for the IC50 in test [1] and in test [2] were 4.57 nM and 48.7 nM, respectively.

With `O=C(N[C@H]1C[C@H]2CC[C@@H](C1)N2S(=O)(=O)N1CCC2(CCCN2)CC1)c1cc(C2CC2)on1` [compound 835, N-((1R,3r,5S)-8-((1,8-diazaspiro[4.5]decan-8-yl)sulfonyl)-8-azabicyclo[3.2.1]octan-3-yl)-5-cyclopropylisoxazole-3-carboxamide], the IC50 in test [1] was determined as 4.63 nM; in test [2], 118 nM.

As to `C[C@H]1C[C@@H](NC(=O)c2cc(C3CC3)on2)CCN1S(=O)(=O)C[C@H]1CCC[C@H](N)C1` [compound 836, N-((2S,4S)-1-((((1S,3S)-3-aminocyclohexyl)methyl)sulfonyl)-2-methylpiperidin-4-yl)-5-cyclopropylisoxazole-3-carboxamide], the IC50 came out at 4.64 nM in test [1] and 89 nM in test [2].
